Where two headings read alike, the source gives them in different places.
Key:
Format in all cases: physicochemical
[1] = Degradation in the presence of butylamine under biologically relevant conditions (37 °C, pH 7.4); conditions: pH 7.4 D2O; for degraded: 10 mM
Method: To investigate how amines degrade polysulfides in the body, NAC trisulfide was dissolved in pH 7.4 in D2O at a concentration of 10 mM. […] Butylamine was added and the reaction was maintained at body temperature (37 °C). Degradation was tracked using ^1H NMR spectroscopy (Figure 8).
N-Acetylcysteine trisulfide (14.4 mg, 36 μmol) was dissolved in 3.6 mL of D2O buffered to pH 7.4. Butylamine (11 μL, 110 μmol) was added and the contents were heated to 37 °C. The ^1H NMR spectra were taken periodically to track degradation.

[2] = Stability in the presence of acetonitrile, benzamide, zinc sulfate or iron sulfate, or in methanol-d4 (1H NMR)
Method: N-Acetylcysteine trisulfide (26.5 mg, 66 μmol) was dissolved in 600 μL of D2O. Acetonitrile (3.0 mg, 73 μmol) was added, and the ^1H NMR spectra were taken periodically to track degradation.
N-Acetylcysteine trisulfide (31.4 mg, 78 μmol) was dissolved in 600 μL of D2O. Benzamide (9.4 mg, 78 μmol) was added, and the ^1H NMR spectra were taken periodically to track degradation.
N-Acetylcysteine trisulfide (15.0 mg, 38 μmol) was dissolved in 600 μL of D2O. ZnSO4 (11.8 mg, 73 μmol) was added, and the ^1H NMR spectra were taken periodically to track degradation.
N-Acetylcysteine trisulfide (15.0 mg, 38 μmol) was dissolved in 600 μL of D2O. FeSO4·7H2O (11.6 mg, 41 μmol) was added, and the ^1H NMR spectra were taken periodically to track degradation.
N-Acetylcysteine trisulfide (32.1 mg, 80 μmol) was dissolved in 600 μL of CD3OD. The ^1H NMR spectra were taken periodically to track degradation.
Cysteine trisulfide (5.1 mg, 19 μmol) was added to 600 μL of D2O. Solution was filtered to remove undissolved particles. […] The ^1H NMR spectra were taken periodically to track degradation.
Cysteine trisulfide (6.8 mg, 25 μmol) was added to 600 μL of D2O. Solution was filtered to remove undissolved particles. […] The ^1H NMR spectra were taken periodically to track degradation.

[3] = Solubility observations; conditions: CDCl3 and acetone
[4] = Stability in D2O in the presence of butylamine or triethylamine, tracked by 1H NMR
Method: N-Acetylcysteine trisulfide (26.5 mg, 66 μmol) was dissolved in 600 μL of D2O. Butylamine (5.0 mg, 68 μmol) was added, and the ^1H NMR spectra were taken periodically to track degradation.
N-Acetylcysteine trisulfide (26.5 mg, 66 μmol) was dissolved in 600 μL of D2O. Triethylamine (8.0 mg, 79 μmol) was added, and the ^1H NMR spectra were taken periodically to track degradation.
Cysteine trisulfide (5.5 mg, 20 μmol) was added to 600 μL of D2O. The solution was filtered to remove undissolved particles. […] The ^1H NMR spectra were taken periodically to track degradation.
Cysteine trisulfide (4.3 mg, 16 μmol) was added to 600 μL of D2O. The solution was filtered to remove undissolved particles. […] The ^1H NMR spectra were taken periodically to track degradation.
N-Acetylcysteine tetrasulfide (17.2 mg, 44 μmol) was dissolved in 600 μL of D2O. Butylamine (9.9 mg, 135 μmol) was added, and the ^1H NMR spectra were taken periodically to track degradation.
N-Acetylcysteine tetrasulfide (17.2 mg, 44 μmol) was dissolved in 600 μL of D2O. Triethylamine (13.5 mg, 135 μmol) was added, and the ^1H NMR spectra were taken periodically to track degradation.

[5] = Stability in water/D2O buffered at different pH values, tracked by 1H NMR
Description: The ^1H NMR spectra of NAC and the disulfide, trisulfide, and tetrasulfide of NAC had peaks at unique values for chemical shifts and allowed for their easy characterization (Figure 3). Pure chemicals of each sulfide were synthesized and characterized by ^1H and ^13C NMR spectroscopy as well as by high-resolution mass spectroscopy. The unique chemical shifts of the peaks for the Ha and Hb/Hc protons on the sulfides allowed the integration of each sulfide to be determined.
The stability of NAC trisulfide in water buffered at pH values of 5.8, 7.4, and 9.0 was measured.
The stability of cysteine trisulfide was investigated in buffered water at pH values of 5.8, 7.0, and 9.0. […] At pH values of 5.8, 7.0, and 9.0, the cysteine trisulfide was soluble and its ^1H NMR spectra were obtained.
The stability of glutathione trisulfide was investigated at pH values of 5.8, 7.4, and 9.0 (Figure S14a). The degradation of glutathione trisulfide was more rapid at pH values of 5.8 and 7.4 than that of the trisulfides of NAC and cysteine. At an acidic pH of 5.8, 71% of glutathione trisulfide degraded after 10 days. At pH values of 7.4 and 9.0, glutathione trisulfide degraded 79 and 81%, respectively, at day 9. […] The degradation of glutathione trisulfide reached an equilibrium of approximately 20% with the disulfide due to the reaction catalyzed by amine with elemental sulfur. Rate constants and half-lives were obtained for the degradation of glutathione trisulfide at each pH value using early data points unaffected by the equilibrium. At pH values of 5.8, 7.4, and 9.0, the estimated half-lives were 6.3 days (151 h), 0.90 days (21.6 h), and 0.79 days (19.0 h), respectively (Figure S14b).
The stability of NAC tetrasulfide was investigated in D2O buffered at pH values of 5.8, 7.4, and 9.0 (Figure S16a). At a pH of 5.8, NAC tetrasulfide degraded by 13% after 9 days. At pH values of 7.4 and 9.0, the tetrasulfide degraded by 55 and 52%, respectively, after 9 days. At each pH, the degradation product was NAC trisulfide, elemental sulfur, and a small amount of NAC disulfide (<3%). […] Estimated rate constants and half-lives for the degradation of NAC tetrasulfide at each pH were obtained. At pH values of 5.8, 7.4, and 9.0, the estimated half-lives were 53.3, 7.5, and 8.2 days, respectively (Figure S16b).

[6] = Equilibrium between di-, tri- and tetrasulfides in the presence of elemental sulfur (1H NMR); conditions: water with elemental sulfur, 40 °C, after 15 days, no amine
Method: To test this hypothesis, a reaction was completed in D2O with elemental sulfur, NAC disulfide, and butylamine.
To understand why the degradation leveled off, NAC trisulfide was dissolved in water, elemental sulfur was added, and the contents were heated to 40 °C.
N-Acetylcysteine disulfide (9.3 mg, 23 μmol) was dissolved in 600 μL of D2O. Elemental sulfur (6.8 mg, 0.21 mmol) and butylamine (18.5 mg, 0.25 mmol) were added, and the ^1H NMR spectra were periodically obtained to track the equilibrium.

CC(=O)N[C@@H](CSSSC[C@H](NC(C)=O)C(=O)O)C(=O)O [NAC trisulfide, N-Acetylcysteine Trisulfide]
degraded ([1]; after 1 h): 45% | degraded ([1]; after 2 h): 81% | degraded ([1]; after 1 day): 81% | half-life at 10 mM ([1]; D2O buffered to pH 7.4 with butylamine, early data points, read-out: estimated half-life (converted)): 46.2 min | degradation ([2]; acetonitrile and benzamide added, D2O, after 8 days): No degradation | degradation ([2]; methanol-d4, after 8 days): no observable degradation | stability ([2]; zinc sulfate and iron sulfate in D2O, 11 days): stable | solubility [3]: very limited solubility | degraded ([4]; 1 equiv butylamine, D2O, after 1 h): 43% | degraded ([4]; 1 equiv butylamine, D2O, after 24 h): 92% | degraded ([4]; 1 equiv triethylamine, D2O, after 1 h): 14% | degraded ([4]; 1 equiv triethylamine, D2O, after 24 h): 87% | half-life ([4]; D2O with butylamine, in the presence of butylamine (abstract), read-out: half-life): 53 min | half-life ([4]; D2O with butylamine, in the presence of butylamine, D2O, early data points, read-out: estimated half-life of degradation (converted)): 56.4 min | half-life ([4]; D2O with triethylamine, in the presence of triethylamine, D2O, early data points, read-out: estimated half-life of degradation (converted)): 132 min | time to reach equilibrium ([4]; addition of butylamine or triethylamine): less than 5 h | tetrasulfide observed as product ([4]; both reactions (butylamine, triethylamine), D2O): < 3% | stability ([5]; all pH values tested (abstract)): stable | degradation ([5]; water buffered at pH 5.8, 7.4 and 9.0, after 8 days): no observable degradation | disulfide formed [6]: 12% | tetrasulfide formed [6]: 11%
